We go through nine compounds from EP0252525B1, “Alpha-amylase assay using modified oligosaccharide and process for producing said modified oligosaccharide” (WAKO PURE CHEMICAL INDUSTRIES, LTD, priority 1986, dated 1988).

Holding throughout (format): biochemical
Experiment [1] addresses T1, human pancreatic α-amylase (HPA) (Homo sapiens, UniProt P04746).
T1 sequence (P04746 16-511): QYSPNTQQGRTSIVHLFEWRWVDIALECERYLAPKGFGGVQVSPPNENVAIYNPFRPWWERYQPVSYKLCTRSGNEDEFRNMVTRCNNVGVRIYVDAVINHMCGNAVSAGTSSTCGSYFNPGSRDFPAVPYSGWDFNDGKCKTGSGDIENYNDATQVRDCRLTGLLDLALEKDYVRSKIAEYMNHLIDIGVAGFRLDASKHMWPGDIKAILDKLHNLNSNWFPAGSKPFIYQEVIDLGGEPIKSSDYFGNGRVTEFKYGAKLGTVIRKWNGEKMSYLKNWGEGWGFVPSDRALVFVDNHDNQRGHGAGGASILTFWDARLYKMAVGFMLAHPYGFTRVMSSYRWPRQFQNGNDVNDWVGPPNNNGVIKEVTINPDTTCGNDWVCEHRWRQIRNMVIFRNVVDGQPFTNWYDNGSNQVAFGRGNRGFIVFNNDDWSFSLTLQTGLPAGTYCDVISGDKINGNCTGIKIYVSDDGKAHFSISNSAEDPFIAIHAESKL
The experiment in a line: Hydrolysis rate of substrates by α-amylase (relative to G5P). The note with it: substrate 1.0 mM, pH 7, value of G5P taken as 1. How it is done: (§1) The above-mentioned advantages can be shown by using the following oligosaccharides: [drawing 6] n = 2: BG4P n = 3: BG5P (the present invention) n = 4: BG6P n = 5: BG7P [drawing 7] n = 2: G4P n = 3: G5P (standard) n = 4: G6P n = 5: G7P [drawing 8] n = 2: BDG4P n = 3: BDG5P n = 4: BDG6P n = 5: BDG7P The hydrolysis rate is measured by using human pancreatic α-amylase (HPA) or human salivary α-amylase (HSA) for each substrate (1.0 mM) at pH 7, and evaluating by means of relative values by taking the value of G5P as 1.

Experiment [2] deals with T2, human salivary α-amylase (HSA) (Homo sapiens, UniProt P0DUB6).
T2 sequence (P0DUB6 16-511): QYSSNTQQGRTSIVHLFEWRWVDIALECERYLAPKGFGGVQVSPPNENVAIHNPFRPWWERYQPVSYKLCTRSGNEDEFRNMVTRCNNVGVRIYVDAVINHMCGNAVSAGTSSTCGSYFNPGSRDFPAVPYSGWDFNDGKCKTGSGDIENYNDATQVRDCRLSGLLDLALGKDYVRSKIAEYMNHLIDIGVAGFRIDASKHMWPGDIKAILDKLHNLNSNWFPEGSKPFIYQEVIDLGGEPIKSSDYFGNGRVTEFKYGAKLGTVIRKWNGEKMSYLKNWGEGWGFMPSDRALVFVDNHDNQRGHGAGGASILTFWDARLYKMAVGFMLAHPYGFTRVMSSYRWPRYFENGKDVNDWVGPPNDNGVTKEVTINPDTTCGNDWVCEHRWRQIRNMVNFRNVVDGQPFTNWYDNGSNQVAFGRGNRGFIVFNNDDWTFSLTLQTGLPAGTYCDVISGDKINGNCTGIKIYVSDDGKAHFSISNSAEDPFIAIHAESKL
Described as above. To be noted: substrate 1.0 mM, pH 7, value of G5P taken as 1. How it is done:
as §1

The target in another experiment is T3, HSA (Homo sapiens, UniProt P0DUB6).
T3 sequence (P0DUB6 16-511): T2 sequence (P0DUB6 16-511)
The experiment in a line: Binding mode (distribution of hydrolysis products) by HPLC. The note with it: for Hydrolysis product G2P: share of product G2P; for Hydrolysis product G3P: share of product G3P; for Hydrolysis product G4P: share of product G4P; for Hydrolysis product GP: share of product GP. As to the method:
(§2) The binding mode of each substrate were measured with high-performance liquid chromatography (HPLC) as described above.

Another experiment concerns the target T4, HPA (Homo sapiens, UniProt P04746).
T4 sequence (P04746 16-511): T1 sequence (P04746 16-511)
Described as above. To be noted: for Hydrolysis product G2P: share of product G2P; for Hydrolysis product G3P: share of product G3P; for Hydrolysis product G4P: share of product G4P; for Hydrolysis product GP: share of product GP. How it is done: as §2

As to `O=[N+]([O-])c1ccc(O[C@H]2O[C@H](CO)[C@@H](O[C@H]3O[C@H](CO)[C@@H](O[C@H]4O[C@H](CO)[C@@H](O[C@H]5O[C@@H]6COC(c7ccccc7)O[C@H]6[C@H](O)[C@H]5O)[C@H](O)[C@H]4O)[C@H](O)[C@H]3O)[C@H](O)[C@H]2O)cc1` (stereo partly drawn) [BDG4P], the “hydrolysis rate (relative value)” value in experiment [1] and in experiment [2] was 0 throughout. The “Hydrolysis product (result in words)” value on HSA and at HPA was “Not hydrolyzed” throughout.
Regarding `O=[N+]([O-])c1ccc(O[C@H]2O[C@H](CO)[C@@H](O[C@H]3O[C@H](CO)[C@@H](O[C@H]4O[C@H](CO)[C@@H](O[C@H]5O[C@H](CO)[C@@H](O[C@H]6O[C@@H]7COC(c8ccccc8)O[C@H]7[C@H](O)[C@H]6O)[C@H](O)[C@H]5O)[C@H](O)[C@H]4O)[C@H](O)[C@H]3O)[C@H](O)[C@H]2O)cc1` (stereo partly drawn) [BDG5P], the “hydrolysis rate (relative value)” value in experiment [1] and in experiment [2] was 0 each time. The “Hydrolysis product (result in words)” value on HSA and at HPA was “Not hydrolyzed” each time.
On to `O=[N+]([O-])c1ccc(O[C@H]2O[C@H](CO)[C@@H](O[C@H]3O[C@H](CO)[C@@H](O[C@H]4O[C@H](CO)[C@@H](O[C@H]5O[C@H](CO)[C@@H](O[C@H]6O[C@H](CO)[C@@H](O[C@H]7O[C@@H]8COC(c9ccccc9)O[C@H]8[C@H](O)[C@H]7O)[C@H](O)[C@H]6O)[C@H](O)[C@H]5O)[C@H](O)[C@H]4O)[C@H](O)[C@H]3O)[C@H](O)[C@H]2O)cc1` (stereo partly drawn) [BDG6P], for which, in experiment [1], the “hydrolysis rate (relative value)” value worked out at 0.4. Moreover, the “hydrolysis rate (relative value)” value in experiment [2] stood at 0.5. Besides, on HSA, the “Hydrolysis product G2P” value was determined as 66%, the “Hydrolysis product G3P” value is recorded as 10%, the “Hydrolysis product G4P” value was determined as 0% and the “Hydrolysis product GP” value came to 24%. In addition, on HPA, the “Hydrolysis product G2P” value is on record as 73%, the “Hydrolysis product G3P” value is given as 12%, the “Hydrolysis product G4P” value is reported as 0% and the “Hydrolysis product GP” value stood at 15%.
For the compound `O=[N+]([O-])c1ccc(O[C@H]2O[C@H](CO)[C@@H](O[C@H]3O[C@H](CO)[C@@H](O[C@H]4O[C@H](CO)[C@@H](O[C@H]5O[C@H](COCc6ccccc6)[C@@H](O)[C@H](O)[C@H]5O)[C@H](O)[C@H]4O)[C@H](O)[C@H]3O)[C@H](O)[C@H]2O)cc1` [BG4P], the “hydrolysis rate (relative value)” value in experiment [1] came out at 0.55. Further, the “hydrolysis rate (relative value)” value in experiment [2] was found to be 0.60. At HSA, the “Hydrolysis product G2P” value stood at 10%, the “Hydrolysis product G3P” value worked out at 0%, the “Hydrolysis product G4P” value is given as 0% and the “Hydrolysis product GP” value amounted to 90%. Moreover, at HPA, the “Hydrolysis product G2P” value was found to be 8%, the “Hydrolysis product G3P” value came to 0%, the “Hydrolysis product G4P” value is reported as 0% and the “Hydrolysis product GP” value turned out to be 92%.
As to `O=[N+]([O-])c1ccc(O[C@H]2O[C@H](CO)[C@@H](O[C@H]3O[C@H](CO)[C@@H](O[C@H]4O[C@H](CO)[C@@H](O[C@H]5O[C@H](CO)[C@@H](O[C@H]6O[C@H](CO)[C@@H](O[C@H]7O[C@H](COCc8ccccc8)[C@@H](O)[C@H](O)[C@H]7O)[C@H](O)[C@H]6O)[C@H](O)[C@H]5O)[C@H](O)[C@H]4O)[C@H](O)[C@H]3O)[C@H](O)[C@H]2O)cc1` [BG6P], in experiment [1], the “hydrolysis rate (relative value)” value was 1.4. Besides, the “hydrolysis rate (relative value)” value in experiment [2] came to 1.4. Besides, on HSA, the “Hydrolysis product G2P” value is given as 29%, the “Hydrolysis product G3P” value is given as 68%, the “Hydrolysis product G4P” value is given as 0% and the “Hydrolysis product GP” value was 3%. On HPA, the “Hydrolysis product G2P” value is 23%, the “Hydrolysis product G3P” value worked out at 73%, the “Hydrolysis product G4P” value stood at 0% and the “Hydrolysis product GP” value is on record as 4%.
For `O=[N+]([O-])c1ccc(O[C@H]2O[C@H](CO)[C@@H](O[C@H]3O[C@H](CO)[C@@H](O[C@H]4O[C@H](CO)[C@@H](O[C@H]5O[C@H](CO)[C@@H](O[C@H]6O[C@H](CO)[C@@H](O[C@H]7O[C@H](CO)[C@@H](O[C@H]8O[C@H](COCc9ccccc9)[C@@H](O)[C@H](O)[C@H]8O)[C@H](O)[C@H]7O)[C@H](O)[C@H]6O)[C@H](O)[C@H]5O)[C@H](O)[C@H]4O)[C@H](O)[C@H]3O)[C@H](O)[C@H]2O)cc1` [BG7P], the “hydrolysis rate (relative value)” value in experiment [1] stood at 1.5. Also, the “hydrolysis rate (relative value)” value in experiment [2] was found to be 1.5. For the same compound, on HSA, the “Hydrolysis product G2P” value came to 15%, the “Hydrolysis product G3P” value amounted to 38%, the “Hydrolysis product G4P” value is listed as 45% and the “Hydrolysis product GP” value was found to be 2%. Further, on HPA, the “Hydrolysis product G2P” value is given as 20%, the “Hydrolysis product G3P” value was 38%, the “Hydrolysis product G4P” value was found to be 40% and the “Hydrolysis product GP” value is reported as 2%.
With `O=[N+]([O-])c1ccc(O[C@H]2O[C@H](CO)[C@@H](O[C@H]3O[C@H](CO)[C@@H](O[C@H]4O[C@H](CO)[C@@H](O[C@H]5O[C@H](CO)[C@@H](O)[C@H](O)[C@H]5O)[C@H](O)[C@H]4O)[C@H](O)[C@H]3O)[C@H](O)[C@H]2O)cc1` [Substrate G4P], the “hydrolysis rate (relative value)” value in experiment [1] came out at 0.70. Also, in experiment [2], the “hydrolysis rate (relative value)” value was 0.75. For the same compound, on HSA, the “Hydrolysis product G2P” value was 74%, the “Hydrolysis product G3P” value is 0%, the “Hydrolysis product G4P” value amounted to 0% and the “Hydrolysis product GP” value is reported as 26%. At HPA, the “Hydrolysis product G2P” value is on record as 55%, the “Hydrolysis product G3P” value is 0%, the “Hydrolysis product G4P” value came to 0% and the “Hydrolysis product GP” value amounted to 45%.
With `O=[N+]([O-])c1ccc(O[C@H]2O[C@H](CO)[C@@H](O[C@H]3O[C@H](CO)[C@@H](O[C@H]4O[C@H](CO)[C@@H](O[C@H]5O[C@H](CO)[C@@H](O[C@H]6O[C@H](CO)[C@@H](O[C@H]7O[C@H](CO)[C@@H](O)[C@H](O)[C@H]7O)[C@H](O)[C@H]6O)[C@H](O)[C@H]5O)[C@H](O)[C@H]4O)[C@H](O)[C@H]3O)[C@H](O)[C@H]2O)cc1` [Substrate G6P], the “hydrolysis rate (relative value)” value in experiment [1] was 1.7. Besides, the “hydrolysis rate (relative value)” value in experiment [2] amounted to 1.7. On HSA, the “Hydrolysis product G2P” value was 40%, the “Hydrolysis product G3P” value worked out at 53%, the “Hydrolysis product G4P” value came out at 0% and the “Hydrolysis product GP” value was 7%. For the same compound, on HPA, the “Hydrolysis product G2P” value stood at 22%, the “Hydrolysis product G3P” value was 76%, the “Hydrolysis product G4P” value came to 0% and the “Hydrolysis product GP” value was determined as 2%.
Turning to `O=[N+]([O-])c1ccc(O[C@H]2O[C@H](CO)[C@@H](O[C@H]3O[C@H](CO)[C@@H](O[C@H]4O[C@H](CO)[C@@H](O[C@H]5O[C@H](CO)[C@@H](O[C@H]6O[C@H](CO)[C@@H](O[C@H]7O[C@H](CO)[C@@H](O[C@H]8O[C@H](CO)[C@@H](O)[C@H](O)[C@H]8O)[C@H](O)[C@H]7O)[C@H](O)[C@H]6O)[C@H](O)[C@H]5O)[C@H](O)[C@H]4O)[C@H](O)[C@H]3O)[C@H](O)[C@H]2O)cc1` [Substrate G7P], the “hydrolysis rate (relative value)” value in experiment [1] turned out to be 1.8. For the same compound, the “hydrolysis rate (relative value)” value in experiment [2] stood at 1.8. Also, at HSA, the “Hydrolysis product G2P” value is on record as 8%, the “Hydrolysis product G3P” value came to 30%, the “Hydrolysis product G4P” value is recorded as 60% and the “Hydrolysis product GP” value is 2%. On HPA, the “Hydrolysis product G2P” value worked out at 14%, the “Hydrolysis product G3P” value is reported as 30%, the “Hydrolysis product G4P” value was determined as 55% and the “Hydrolysis product GP” value is 1%.
